Results on one molecule are retold here after patent publication US11484512B2, “Nanoparticles formed of a polymer and terbinafine” (Blueberry Therapeutics Limited, priority 2017, dated 2022).

Each structure is given as a SMILES string. Values after ≈ are worked out from the molar mass of the structure shown. Where two headings read alike, the source gives them in different places.

Data set [1] in a line: Franz cell nail penetration, single dose (constant exposure). It counts as in vitro ADME, human. Here is the method: Nail clippings were soaked in water overnight at 30° C. and dried briefly. A 3 mm diameter punch was used to take disc biopsies of the nail clippings. Each nail disc was added to a Franz cell and an upper chamber of the cell attached. 40 μl of the following formulations was added to the upper chambers: 0.3 mg/ml PHMB+0.1 mg/ml terbinafine; or 10 mg/ml terbinafine. Lower collection chambers of the Franz cells were filled with water (approximately 600 μl) and the hole in the base of the sample chamber also filled with ddH2O to prevent bubbles forming beneath the nail. The upper sample chamber was carefully placed into the collection chamber ensuring not to introduce any air bubbles. Excess liquid from the collection chamber was expelled at this point leaving a final volume of liquid in the lower chamber of 500 μl. […] The nail discs from the Franz cell were also analysed for the presence of terbinafine as follows: the remaining test sample was removed from the upper sample chamber and discarded and the sample chamber washed 5 times with 100 μl ddH2O, with each wash being discarded, in order to remove any residual test solution remaining in the sample chamber. […] After 7 days, samples from the underside of the nail (ethanol washes) were collected and analysed by LC-MS/MS. […] Levels of terbinafine were quantified against drug standards. […]

Another data set has as its system T. mentagrophytes. The experiment in a line: Trychophyton mentagrophytes anti-fungal paper disc lawn assay. Particulars: 5 days incubation. It counts as cell-based. Here is the method: FIGS. 6A-6E are photographic images of yeast extract peptone dextrose (YEPD) agar plates with Trychophyton mentagrophytes after incubation for 4 days at 30° C. […] 40 μl of double distilled water or terbinafine solution of varying concentration was spotted onto each paper disc. The concentration of the terbinafine solutions used were: 0 μg/ml (control, FIG. 6A), 0.06 μg/ml (FIG. 6B), 0.6 μg/ml (FIG. 6C), 6.00 μg/ml (FIG. 6D) and 60.0 μg/ml (FIG. 6E); FIGS. 7A and 7B are photographic images of YEPD plates assessing the efficacy of BB2603 (terbinafine and PHMB nanoparticles) and terbinafine samples passing through healthy human nail against Trychophyton mentagrophytes A lawn of Trychophyton mentagrophytes was spread onto YEPD agar plates supplemented with 50 μg/ml chloramphenicol. The aqueous samples from the Franz cell collection chamber following 7 days treatment of healthy human nails with either 0.1 mg/ml terbinafine (FIG. 7A) or BB2603 (FIG. 7B) were spotted onto 10 mm paper discs. The discs were placed in the middle of the Trychophyton plates, which were then incubated at 30° C. for 5 days to allow the fungi to grow. […]

The test system of another data set is Epidermophyton floccosum. Particulars: 42 strains tested; cited from earlier work.
The next data set deals with Microsporum species. Particulars: 25 strains tested; cited from earlier work.
In another data set the test system is Microsporum canis. Particulars: 49 strains tested; cited from earlier work.
A further data set deals with Trichophyton species. Particulars: 27 strains tested; cited from earlier work.
The subject of the next data set is Trichophyton rubrum. Particulars: 72 strains tested; cited from earlier work.
The test system of a further data set is Trichophron verrucosum. Particulars: 17 strains tested; cited from earlier work.
Data set [2] has as its system Trichophron mentagrophytes. Particulars: cited from earlier work.
For data set [3], the system named is Trichophyton interdigitale. Particulars: 11 strains tested; cited from earlier work.
Another data set relates to Trichophyron terestre. Particulars: 1 strain tested; cited from earlier work.
For data set [4] the following is noted: cited from earlier work.
Another data set relates to onychomycosis. Particulars: following 3-6 months of dosing, oral; cited from earlier work.

For orientation: MIC means the lowest concentration that inhibits growth of the organism. In the case of `CN(C/C=C/C#CC(C)(C)C)Cc1cccc2ccccc12` [terbinafine], the “concentration of terbinafine in ethanol washes of the underside of the nail” value in data set [1] (0.1 mg/ml, 30% (v/v) ethanol, 7 days, single dose, BB2603 value is median) is below 0.1 ng/mL. The “median concentration of drug in dissolved nails” value in [1] (after 7 days, FIGS. 4 and 5A-5B) is given as “approximately 0.5 mg/g”. Besides, in the data set with T. mentagrophytes (Trichophyton mentagrophytes, 120 h, 30° C.), the minimal inhibitory concentration (MIC) stood at 600 ng/mL (≈ 2060 nM). Moreover, the “zone of clearance with Franz cell aqueous sample passed through nail” value with T. mentagrophytes (collection chamber sample after 7 days nail treatment) is listed as “no effect”. Moreover, the MIC range in the data set with Epidermophyton floccosum is 1 to 47 ng/mL; with Microsporum species, 2 to 70 ng/mL; in the data set with Microsporum canis, 6 to 80 ng/mL; with Trichophyton species, at most 60 ng/mL; with Trichophyton rubrum it was 1 to 38 ng/mL; in the data set on Trichophron verrucosum, 1 to 6 ng/mL. For the same molecule, the MIC range in data set [2] (32 strains tested) is 1 to 6 ng/mL; in [3] it was 2 to 28 ng/mL; in the data set with Trichophyron terestre it was 2 ng/mL (≈ 6.86 nM). Also, in data set [2] (liquid MIC assay), the “previously reported MIC” value is 6 ng/mL. The figures for the “concentration in nails following oral dosing” value in data set [4] (after 3 weeks), in data set [4] (after 18 months) and in [4] (after 7 days treatment) were “about 0.25 μg/g”, 0.55 µg/g and 0.1 µg/g, respectively. For the same molecule, the cure in the data set with onychomycosis is given as above 80%.
